{
  "source": "patent US8772274B1",
  "about": "“Anti-cancer compositions and methods” (The Penn State Research Foundation, priority 2008, dated 2014)",
  "key": {"[1]": {"tested_on": "UACC 903 melanoma cell line", "test": "MTS cell viability assay, UACC 903", "assay_type": "cell-based", "conditions": "Homo sapiens; UACC 903 melanoma; 24 hours treatment; MTS; read-out: IC50, UACC 903 (Table I)", "description": "Cellular viability compared to control treated cells is measured using the MTS assay (Promega, Madison, Wis.)."}, "[2]": {"tested_on": "HT-29 colorectal adenocarcinoma cells", "test": "MTS cell viability assay, HT-29", "assay_type": "cell-based", "conditions": "Homo sapiens; HT-29; 24-72 hours; MTS; read-out: Inhibition of growth IC50, HT-29 (Table II)"}, "[3]": {"tested_on": "A549 lung adenocarcinoma cells", "test": "MTS cell viability assay, A549", "assay_type": "cell-based, human", "description": "(§1) Growth inhibitory effects on cultured cells from human vertical growth phase (VGP) melanoma cell line WM115, Lung adenocarcinoma (A549), fibrosarcoma (HT-1080), prostate adenocarcinoma (PC-3), ovarian carcinoma (OVCAR-3), and breast adenocarcinoma (MDA-MB-231) are plated in 96 well plates at a density of 5×10^3 cells/well in 100 μl media. […] Dose response curves for each compound are generated and the IC50 values (μM) determined using GraphPad Prism software. Each experiment is replicated at least 3 times and the average IC50 (μM) values with standard error represented."}, "[4]": {"tested_on": "colon adenocarcinoma cells (Caco-2, HT 29, HCT 116, SW 480)", "test": "MTS viability, four colon cancer cell lines (summary)", "assay_type": "cell-based", "description": "The IC50 value is evaluated by treating with increasing concentrations of PBIT, PEIT, PEISe (10-100 μM) or PBISe (1.6-50 μM) for 24-72 hours and the number of viable cell are quantified using MTS (Promega, Wis.)."}, "[5]": {"tested_on": "A549, Caco-2, HT-1080, PC-3, OVCAR-3, MDA-MB-231, WM115", "test": "MTS viability, all cancer cell lines tested (summary)", "assay_type": "cell-based, human", "description": "as §1"}, "[6]": {"test": "Systemic toxicity assessment, i.p. treatment", "assay_type": "in vivo", "conditions": "nude mice, 3 weeks", "procedure": "Tumor kinetics are measured by subcutaneous injection of 5×10^6 UACC 903 or 2.5×10^61205 Lu cells in 0.2 ml of DMEM containing 10% FBS above left and right rib cages of 4-6 week old female nude mice (Harlan Sprague Dawley, Indianapolis, Ind.). Six days later, a fully vascularized tumor has developed and mice are randomly placed in control DMSO or experimental (PBIT or PBISe) groups (n=5 animals; 10 tumors total) followed by i.p. treatment with PBIT ([…]) or PBISe ([…]; equivalent to 2.5 ppm selenium per 20 g mouse) on Monday, Wednesday and Friday for 3 weeks. Dimensions of developing tumors and body weight are measured.\nSystemic toxicity of PBISe in animals is evaluated in nude mice. Mice are exposed to PBISe or PBIT ([…]), or vehicle DMSO, 3 times per week and animals weighed to ascertain possible toxicity. 4-6 week old female nude mice (Harlan Sprague Dawley, Indianapolis, Ind.) are injected i. p. with either control DMSO vehicle, PBIT or PBISe (0.315 μmoles each) for 3 weeks by following the regime used for tumorigenicity. Blood is then collected from each animal in plasma separator tubes with lithium heparin (BD Microtainer, BD, Franklin Lakes, N.J.) following cardiac puncture and analyzed for SGOT, SGPT, alkaline phosphatase, glucose and creatinine to ascertain liver, heart, kidney and pancreas related toxicity. For morphological examination of blood cells, whole blood is collected in microtainer tubes containing K2EDTA (BD Microtainer, BD, Franklin Lakes, N.J.) and RBC, WBC, lymphocytes, monocytes, eosinophils, platelets, total hemoglobin and hematocrit percentage analyzed. Blood is also microscopically examined for segregates, polychromatin bodies, and smudge cells. A portion of vital organs—liver, heart, kidney, intestine, pancreas and adrenal—from each animal is formalin fixed and paraffin-embedded to examine for toxicity-associated changes in cell morphology and organization following H&E staining. […] Thus, PBISe treatment has negligible associated systemic toxicity at the concentrations examined."}, "[7]": {"tested_on": "WM35-GFP and UACC 903-GFP melanoma tumors in reconstructed skin", "test": "Topical treatment of skin reconstructs containing melanoma cells", "assay_type": "cell-based, human", "conditions": "8 days", "procedure": "Generation of skin containing melanocytic lesions is briefly described. […] Mixture is then aliquoted into 6 or 12 well plates and incubated at 37° C. for 3 hours. […] One milliliter of cell suspension is added to each well on top of the dermal layer. Following two days growth, reconstructed skin is transferred onto wire grids and fed via diffusion from E-media below the platforms.\nSkin reconstructs containing melanoma cells are treated topically with increasing concentrations (5, 10, 15 and 20 μM in 200 μL PBS) of PBIT or PBISe. Eight days later control vehicle PBS treated, PBIT and PBISe exposed skins are fixed in paraformaldehyde and stored in 0.5% EDTA.\nBeginning on day 8 of culture, the reconstructed skins containing melanoma tumors are treated with increasing concentrations of PBISe (5, 10, 15 and 20 μM) or PBIT (15 and 20 μM) in 200 μL of vehicle PBS for 8 days and the size of developing tumors, in terms of area occupied by GFP, is measured using fluorescence microscopy."}, "WM115 melanoma cell line": {"tested_on": "WM115 melanoma cell line", "test": "MTS cell viability assay, WM115", "conditions": "for IC50: Homo sapiens, WM-115, 24 h", "description": "5×10^3 cells per well in 100 μl DMEM-10% FBS are grown in a 96-well plate for 36 or 72 hours, respectively for melanoma (UACC 903, 1205 Lu and WM115) and human fibroblast (FF2441) cell lines and treated with either PBS vehicle or increasing concentrations (3.5-21 μM) of PBIT, PBISe, PEIT or PEISe for 24 hours. Cellular viability compared to control treated cells is measured using the MTS assay (Promega, Madison, Wis.). IC50 (μM) values for each compound in respective cell lines is determined from three independent experiments using GraphPad Prism version 4.01 (GraphPad, San Diego, Calif.), bars, SEM.\nGrowth inhibitory effects on cultured cells from human vertical growth phase (VGP) melanoma cell line WM115, Lung adenocarcinoma (A549), fibrosarcoma (HT-1080), prostate adenocarcinoma (PC-3), ovarian carcinoma (OVCAR-3), and breast adenocarcinoma (MDA-MB-231) are plated in 96 well plates at a density of 5×10^3 cells/well in 100 μl media. The cells are treated 36 hours later with PBISe (0.19-100 μM), PBIT (10-100 μM), PEIT 10-100 μM), or PEISe (10-100 μM) for 24 h and cell viability measured using MTS assay. Dose response curves for each compound are generated and the IC50 values (μM) determined using GraphPad Prism software. Each experiment is replicated at least 3 times and the average IC50 (μM) values with standard error represented."}},
  "note": "Counter-ions that a name gives are not always drawn. Like-named read-outs stand apart in the source and are kept apart here.",
  "data": [
    {"smiles": "N=C(N)[Se]CCc1ccc(CC[Se]C(=N)N)cc1", "note": "[PBISe, s,s′-1,4-phenylene-bis(1,2-ethanediyl)bis-isoselenourea dihydrobromide]", "values": [
      {"measurement": "IC50", "setting": "[1]", "value": "8.1 ± 0.8", "unit": "µM"},
      {"measurement": "IC50", "setting": "[2]", "value": "3.84 ± 0.44", "unit": "µM"},
      {"measurement": "IC50", "setting": "[3]; Homo sapiens, A549, 24 h, read-out: Inhibition Cancer Cells IC50, A549 (Table III)", "value": "4.2 ± 0.58", "unit": "µM"},
      {"measurement": "Fold increase in efficacy (PBIT/PBISe), A549", "setting": "[3]; ratio of IC50 PBIT/PBISe, A549", "value": ">23.8", "unit": "fold"},
      {"measurement": "fold more sensitive, colon adenocarcinoma cells than normal cells", "setting": "[4]; colon lines vs FF2441", "value": "2-7 fold"},
      {"measurement": "IC50", "setting": "[4]; read-out: IC50 range, four colon cancer cell lines", "value": "2.4 to 5.55", "unit": "µM"},
      {"measurement": "fold more potent at decreasing cell viability compared to PBIT, all cancer cell lines tested", "setting": "[5]; A549, Caco-2, HT-1080, PC-3, OVCAR-3, MDA-MB-231, WM115", "value": "> 10", "unit": "fold"},
      {"measurement": "IC50", "setting": "[5]; Homo sapiens, read-out: concentration decreasing cell viability by 50% (IC50), cancer cell lines of Table III", "value": "8 to 10", "unit": "µM"},
      {"measurement": "blood parameters (SGOT, SGPT, alkaline phosphatase, blood urea, glucose and creatinine)", "setting": "[6]; i.p. 0.315 μmoles", "value": "did not detect significant liver, kidney or cardiac related toxicity"},
      {"measurement": "histological examination of H&E stained vital organ sections", "setting": "[6]; i.p. 0.315 μmoles", "value": "did not significantly change cell morphology or organ structure"},
      {"measurement": "body weight during treatment", "setting": "[6]; i.p. 3 times per week", "value": "No significant difference"},
      {"measurement": "morphology of constituent cells of skin reconstructs", "setting": "[7]; 20 uM topical, H&E", "value": "no toxicity"},
      {"measurement": "difference in tumor size compared to vehicle PBS control and PBIT treated skins", "setting": "[7]; 15 and 20 μM, topical, area occupied by GFP, WM35 and UACC 903", "value": "80-90%"},
      {"measurement": "IC50", "setting": "WM115 melanoma cell line; read-out: IC50, WM115 (Table I)", "value": "9.7 ± 1.4", "unit": "µM"},
      {"measurement": "IC50", "setting": "WM115 melanoma cell line; read-out: Inhibition Cancer Cells IC50, WM115 (Table III)", "value": "9.7 ± 1.4", "unit": "µM"},
      {"measurement": "Fold increase in efficacy (PBIT/PBISe), WM115", "setting": "WM115 melanoma cell line; ratio of IC50 PBIT/PBISe, WM115", "value": ">10", "unit": "fold"}
    ]}
  ]
}
